# Data from US6887879B2, “Pharmaceutical combination of antiviral agents” (priority 1999, dated 2005).
# Where two headings read alike, the source gives them in different places.
# What was measured:
# [1] = Cytotoxicity, [3H]-thymidine uptake, HepG2; type: cell-based; conditions: human, HepG2 cells
# Procedure: (§1) The cellular toxicity of the BCH compounds were assessed on various cells using [^3H]-thymidine uptake. The various cells, including Molt-4, HT1080, DU-145, HepG 2 and HSF, were plated at a concentration of 1-2×10^3 cells per well (96 well plates). However, PHA-stimulated PBMCs were cultured at a concentration of 4×10^4. After a 24 hr incubation period, 10-fold serial diluted compounds (10^−4 M to 10^−10 M) were added to the culture medium and the cells were further incubated for 72 hrs. [^3H]-thymidine was added during the final 18 hr incubation period. After incubation with the [^3H]-thymidine, the cells were washed once with PBS, treated with trypsin it the cells were adherent, and then resuspended in water (hypotonic lysing of cells) The cellular extract was applied directly to a Tomtec Harvester 96. Using this instrument the extracted DNA is adsorbed onto filters, washed and the incorporated [^3H]-thymidine is then counted.
# [2] = Cytotoxicity, [3H]-thymidine uptake, HSF; type: cell-based; conditions: human, human skin fibroblasts (HSF)
# Procedure: as §1
# [3] = test system: HIV-1 clinical isolate 4246; assay: Antiviral assay, HIV-1 clinical isolate 4246, CBMCs; type: cell-based; conditions: Human immunodeficiency virus 1, read-out: EC50 in CBMCs
# Procedure: (§2) HIV-1IIIB laboratory strain and HXB2-D recombinant of HIV-1 were kindly supplied by R. C. Gallo (Institute of Human Virology, Baltimore, Md.). […] The recombinant viruses were generated by transfection of proviral DNA into MT-4 cells with Lipofectamine using the protocol recommended by the manufacturer .(Gibco BRL, Montreal, Canada). […] Stock viruses were prepared from clarified culture supernatants by centrifugation and stored at −70° C. The viruses were titrated by limited dilution with a 4-fold serial dilution.
# (§3) The population of HIV-1 in infected individual is quasispecies and the sensitivity of these different viruses found in clinical isolates to antiviral chemotherapy might be quite variable. In addition, HIV-1 isolates obtained from patients receiving long-term antiretroviral therapy might behave differently from cloned virus containing genetically engineered mutations in the RT gene. For these reasons, clinical isolates of HIV-1 from antiviral naive and drug-treated patients were assayed in PHA-stimulated CBMCs for their sensitivity to DXG and DAPD accompanied with approved antiretroviral agents. The genotype of the HIV-1 clinical isolates were determined as described above.
# [4] = test system: recombinant HXB2-D 10R/46I/63P/82T/84V; assay: microbe, parasite or virus in culture; type: cell-based, HIV-1; conditions: Human immunodeficiency virus 1, HXB2, read-out: EC50 in CBMCs
# Procedure: as §2
# recombinant HXB2-D 65R = assay: microbe, parasite or virus in culture; type: cell-based, HIV-1; conditions: Human immunodeficiency virus 1, HXB2, read-out: EC50 in CBMCs
# Procedure: as §2
# recombinant HXB2-D 184V = assay: microbe, parasite or virus in culture; type: cell-based, HIV-1; conditions: Human immunodeficiency virus 1, HXB2, read-out: EC50 in CBMCs
# Procedure: as §2
# [5] = test system: recombinant HXB2-D 41L/70R/215Y/219Q; assay: microbe, parasite or virus in culture; type: cell-based, HIV-1; conditions: for sensitivity of AZT resistant virus, in words: 41L, 70R, 215Y and 219Q, CBMCs, also observed in MT-2 cells; for EC50: Human immunodeficiency virus 1, HXB2, read-out: EC50 in CBMCs
# Procedure: as §2
# recombinant HXB2-D WT = assay: microbe, parasite or virus in culture; type: cell-based, HIV-1; conditions: Human immunodeficiency virus 1, HXB2, read-out: EC50 in CBMCs
# Procedure: as §2
# recombinant HXB2-D 74V = assay: microbe, parasite or virus in culture; type: cell-based, HIV-1; conditions: Human immunodeficiency virus 1, HXB2, read-out: EC50 in CBMCs
# Procedure: as §2
# [6] = test system: recombinant HXB2-D 41L/215Y/184V; assay: microbe, parasite or virus in culture; type: cell-based, HIV-1; conditions: for EC50: Human immunodeficiency virus 1, HXB2, read-out: EC50 in CBMCs
# Procedure: as §2
# [7] = Cytotoxicity, [3H]-thymidine uptake, PBMC; type: cell-based; conditions: human, PHA-stimulated PBMCs
# Procedure: as §1
# [8] = test system: HIV-1 clinical isolate 4526; assay: Antiviral assay, HIV-1 clinical isolate 4526, CBMCs; type: cell-based; conditions: Human immunodeficiency virus 1, naive
# Procedure: as §2, §3
# [9] = Cytotoxicity, [3H]-thymidine uptake, DU145; type: cell-based; conditions: human, DU145 cells
# Procedure: as §1
# HIV-1IIIB = assay: Anti-HIV-1 antiviral assay, laboratory strain HIV-1IIIB, RT activity in culture supernatants
# Procedure: Most experiments were performed with a laboratory strain HIV-1III. […] The cells were incubated with virus using the indicated multiplicity of infection (MOI) for 2-3 hrs. The MOI used for each experiment was dependent upon the cell line and virus strain used, and was generally in the range of 0.005 to 0.5. For example, in assays performed using the established cell line MT-2, HIV-1IIIB at an MOI of 0.005 was used to infect cells. The unbound virus was then removed by washing the cells, followed by plating the cells into a 96-well plate. The infected cells were cultured in the presence of a serial concentrations of the test compound for 5-7 days. The anti-HIV-1 efficacy was determined by testing for HIV-1 RT activity in the cell culture supernatants. All assays were performed in duplicate and at least two independent experiments were performed. […] The susceptibilities of the HIV-1 variants to antiretroviral agents are expressed as the mean of the EC50 determinations.
# [10] = test system: HIV-1 clinical isolate 3350; assay: microbe, parasite or virus in culture; type: cell-based; conditions: for EC50: Human immunodeficiency virus 1, read-out: EC50 in CBMCs; for decreased susceptibility compared to the lamivudine and AZT sensitive isolates: isolate 3350, 184V
# Procedure: as §2, §3
# [11] = test system: HIV-1 clinical isolate 4877; assay: microbe, parasite or virus in culture; type: cell-based; conditions: Human immunodeficiency virus 1, read-out: EC50 in CBMCs
# Procedure: as §2, §3
# [12] = test system: HIV-1 clinical isolate 3887; assay: microbe, parasite or virus in culture; type: cell-based; conditions: Human immunodeficiency virus 1, read-out: EC50 in CBMCs
# Procedure: as §2, §3
# [13] = test system: HIV-1 clinical isolate 4833; assay: microbe, parasite or virus in culture; type: cell-based; conditions: Human immunodeficiency virus 1, therapy Saquinavir (48 weeks), read-out: EC50 in CBMCs
# Procedure: as §2, §3
# [14] = test system: HIV-1 clinical isolate 4242; assay: microbe, parasite or virus in culture; type: cell-based; conditions: for sensitivity of isolate 4242, in words: 41L/70R/215Y in RT; for EC50: Human immunodeficiency virus 1, read-out: EC50 in CBMCs
# Procedure: as §2, §3
# [15] = test system: HIV-1 clinical isolate 4205; assay: microbe, parasite or virus in culture; type: cell-based; conditions: for EC50: Human immunodeficiency virus 1, read-out: EC50 in CBMCs; for decreased susceptibility compared to the lamivudine and AZT sensitive isolates: isolate 4205, 184V
# Procedure: as §2, §3
# [16] = test system: HIV-1 clinical isolate 4924; assay: microbe, parasite or virus in culture; type: cell-based; conditions: Human immunodeficiency virus 1, read-out: EC50 in CBMCs
# Procedure: as §2, §3
# [17] = Cytotoxicity, [3H]-thymidine uptake, Molt-4; type: cell-based; conditions: human, Molt-4 cells
# Procedure: as §1
# [18] = Cytotoxicity, [3H]-thymidine uptake, HT-1080; type: cell-based; conditions: human, HT-1080 cells
# Procedure: as §1
# [19] = test system: CBMCs, MT-2, H9, Jurkat and U937; assay: Cytotoxicity, WST-1 cell viability assay; type: cell-based, human; conditions: WST-1, MT-2, H9, Jurkat and U937
# Procedure: The cellular toxicity of the compounds was also tested by WST-1 staining through assessing proliferation of MT-2, H9, Jurkat, U937, and CBMCs. The established cell lines were cultured in RPMI medium in 96-well plates at a density of 5×10^4 cells/well while CBMCs were plated at a concentration of 0.5×10^6/well. A 10-fold serial diluted (10^−4−10^−7 M) compound was added at day zero. At day 4, the cells were passaged by changing half medium containing appropriately diluted compound. The cell activities were assessed at day 7 using the WST-1 reagent (Boehringer Mannheim) following the protocol provided by the supplier.
# [20] = test system: recombinant HXB2-D 106A/181C; assay: microbe, parasite or virus in culture; type: cell-based, HIV-1; conditions: Human immunodeficiency virus 1, HXB2, read-out: EC50 in CBMCs
# Procedure: as §2
# [21] = Human immunodeficiency virus 1, H9, read-out: EC50, mean values ± SD
# [22] = Human immunodeficiency virus 1, Jurkat, read-out: EC50, mean values ± SD
# [23] = Human immunodeficiency virus 1, MT2, read-out: EC50, mean values ± SD
# [24] = Human immunodeficiency virus 1, MT4, read-out: EC50, mean values ± SD
# [25] = Human immunodeficiency virus 1, U-937
# [26] = Human immunodeficiency virus 1, read-out: EC50, mean values ± SD
smiles,measurement,setting,value
"Nc1nc(N)c2ncn([C@H]3CO[C@@H](CO)O3)c2n1 [DAPD, (−)- -D-2,6-diaminopurine-1,3-dioxolane]",CC50 at 72 h,[1],> 500000 nM
same,CC50 at 72 h,[2],> 500000 nM
same,EC50,[3],410 ± 20 nM
same,EC50,[4],1370 ± 60 nM
same,EC50,recombinant HXB2-D 65R,6500 ± 2100 nM
same,EC50,recombinant HXB2-D 184V,2100 ± 200 nM
same,"sensitivity of AZT resistant virus, in words",[5],remained completely sensitive
same,EC50,[5],1250 ± 590 nM
same,EC50,recombinant HXB2-D WT,1100 ± 160 nM
same,EC50,recombinant HXB2-D 74V,6600 ± 3400 nM
same,EC50,[6],2300 ± 50 nM
same,CC50 at 72 h,[7],> 500000 nM
same,EC50,[8],850 ± 71 nM
same,CC50 at 72 h,[9],> 500000 nM
same,EC50,HIV-1IIIB; [21],75 ± 40 nM
same,EC50,HIV-1IIIB; [22],1370 ± 720 nM
same,EC50,HIV-1IIIB; [23],540 nM
same,EC50,HIV-1IIIB; [24],940 ± 28 nM
same,EC50,HIV-1IIIB; [25],1300 nM
same,EC50,HIV-1IIIB; [26],970 nM
same,EC50 fold higher than those for DXG,HIV-1IIIB; various cells,5-20 fold
same,EC50,[10],3300 ± 1200 nM
same,decreased susceptibility compared to the lamivudine and AZT sensitive isolates,[10],~5 fold
same,EC50,[11],260 nM
same,EC50,[12],190 ± 120 nM
same,EC50,[13],630 ± 380 nM
same,"sensitivity of isolate 4242, in words",[14],remained sensitive
same,EC50,[14],880 ± 300 nM
same,EC50,[15],4100 ± 350 nM
same,decreased susceptibility compared to the lamivudine and AZT sensitive isolates,[15],~5 fold
same,EC50,[16],170 nM
same,CC50 at 72 h,[17],> 500000 nM
same,CC50 at 72 h,[18],> 500000 nM
"Nc1nc2c(ncn2[C@H]2CO[C@@H](CO)O2)c(=O)[nH]1 [DXG, (−)-β-D-1,3-dioxolane guanine]",CC50 at 72 h,[1],> 500000 nM
same,CC50 at 72 h,[2],≥ 500000 nM
same,EC50,[3],120 ± 80 nM
same,no toxicity up to (highest concentration tested),[19],≥ 100 µM
same,EC50,[4],120 ± 30 nM
same,EC50,recombinant HXB2-D 65R,1200 ± 200 nM
same,EC50,recombinant HXB2-D 184V,440 ± 70 nM
same,"sensitivity of AZT resistant virus, in words",[5],remained completely sensitive
same,EC50,[5],240 ± 20 nM
same,EC50,recombinant HXB2-D WT,210 ± 50 nM
same,EC50,recombinant HXB2-D 74V,1300 ± 800 nM
same,decreased sensitivity,[6]; 41L and 215Y combined with 184V,~2 fold
same,EC50,[6],410 ± 100 nM
same,EC50,[20],50 ± 7 nM
same,CC50 at 72 h,[7],> 500000 nM
same,EC50,[8],55 ± 27 nM
same,CC50 at 72 h,[9],> 500000 nM
same,EC50,HIV-1IIIB; [21],60 ± 50 nM
same,EC50,HIV-1IIIB; [22],340 ± 140 nM
same,EC50,HIV-1IIIB; [23],85 nM
same,EC50,HIV-1IIIB; [24],51 ± 9 nM
same,EC50,HIV-1IIIB; [25],410 nM
same,EC50,HIV-1IIIB; [26],46 nM
same,anti-HIV-1 efficacy fold less than that of AZT,HIV-1IIIB; various cells,5-10 fold
same,EC50,[10],650 ± 330 nM
same,decreased susceptibility compared to the lamivudine and AZT sensitive isolates,[10],~5 fold
same,EC50,[11],45 nM
same,EC50,[12],180 ± 7 nM
same,EC50,[13],170 ± 60 nM
same,"sensitivity of isolate 4242, in words",[14],remained sensitive
same,EC50,[14],210 ± 7 nM
same,EC50,[15],1100 ± 1190 nM
same,decreased susceptibility compared to the lamivudine and AZT sensitive isolates,[15],~5 fold
same,EC50,[16],20 nM
same,CC50 at 72 h,[17],> 500000 nM
same,CC50 at 72 h,[18],> 500000 nM
